US9487515B2, “Compounds modulating c-fms and/or c-kit activity and uses therefor” (Plexxikon Inc., priority 2006, dated 2016)

What follows are compounds tested against c-kit (Homo sapiens, UniProt P10721) (assay: c-kit assays of Examples 40 and 41 (AlphaScreen kinase assays at 10 and 100 μM ATP, 33P-ATP filter assay, M-07e SCF-stimulated proliferation and phosphorylation)).
c-kit, sequence (P10721 with tags, fused parts or gaps): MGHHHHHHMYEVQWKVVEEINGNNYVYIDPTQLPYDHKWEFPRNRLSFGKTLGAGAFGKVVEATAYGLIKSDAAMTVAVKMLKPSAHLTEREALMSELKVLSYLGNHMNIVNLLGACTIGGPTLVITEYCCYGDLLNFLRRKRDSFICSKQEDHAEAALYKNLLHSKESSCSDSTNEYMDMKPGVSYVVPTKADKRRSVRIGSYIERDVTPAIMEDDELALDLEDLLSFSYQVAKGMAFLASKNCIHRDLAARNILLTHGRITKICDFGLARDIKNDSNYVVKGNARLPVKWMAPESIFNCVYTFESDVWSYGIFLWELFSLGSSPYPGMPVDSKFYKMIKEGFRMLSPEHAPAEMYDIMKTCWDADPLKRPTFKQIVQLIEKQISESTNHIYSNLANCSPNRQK

Row | SMILES | IC50
1 | O=C(Nc1ccc(Cc2c[nH]c3ncccc23)cn1)c1ccc(F)c(C(F)(F)F)c1 [P-0112, 4-Fluoro-N-[5-(1H-pyrrolo[2,3-b]pyridin-3-ylmethyl)-pyridin-2-yl]-3-trifluoromethyl-benzamide] | < 1000 nM
2 | Clc1ccc(CNc2ccc(Cc3c[nH]c4ncccc34)c(Cl)n2)cc1 [P-0161, (4-Chloro-benzyl)-[6-chloro-5-(1H-pyrrolo[2,3-b]pyridin-3-ylmethyl)-pyridin-2-yl]-amine] | < 1000 nM
3 | COc1ccnc2[nH]cc(Cc3ccc(NCc4ccc(Cl)cc4)nc3)c12 [P-0010, [5-(4-Methoxy-1H-pyrrolo[2,3-b]pyridin-3-ylmethyl)-pyridin-2-yl]-(4-chloro-benzyl)-amine] | < 1000 nM
4 | Fc1cccc(F)c1CNc1ccc(Cc2c[nH]c3ncccc23)cn1 [P-0340, (2,6-Difluoro-benzyl)-[5-(1H-pyrrolo[2,3-b]pyridin-3-ylmethyl)-pyridin-2-yl]-amine] | < 1000 nM
5 | FC(F)Oc1ccccc1CNc1ccc(Cc2c[nH]c3ncc(Cl)cc23)cn1 [P-0338, [5-(5-Chloro-1H-pyrrolo[2,3-b]pyridin-3-ylmethyl)-pyridin-2-yl]-(2-difluoromethoxy-benzyl)-amine] | < 1000 nM
6 | N#Cc1cnc2[nH]cc(Cc3ccc(NCc4ccccc4OC(F)F)nc3)c2c1 [P-0339, 3-[6-(2-Difluoromethoxy-benzylamino)-pyridin-3-ylmethyl]-1H-pyrrolo[2,3-b]pyridine-5-carbonitrile] | < 1000 nM
7 | Clc1ccc(CNc2ccc(Cc3c[nH]c4ncccc34)cn2)c(Cl)c1 [P-0342, (2,4-Dichloro-benzyl)-[5-(1H-pyrrolo[2,3-b]pyridin-3-ylmethyl)-pyridin-2-yl]-amine] | < 1000 nM
8 | Fc1cccc(CNc2ccc(Cc3c[nH]c4ncccc34)cn2)c1 [P-0343, (3-Fluoro-benzyl)-[5-(1H-pyrrolo[2,3-b]pyridin-3-ylmethyl)-pyridin-2-yl]-amine] | < 1000 nM
9 | COc1ncccc1CNc1ccc(Cc2c[nH]c3ncc(C#N)cc23)cn1 [P-0287, 3-{6-[(2-Methoxy-pyridin-3-ylmethyl)-amino]-pyridin-3-ylmethyl}-1H-pyrrolo[2,3-b]pyridine-5-carbonitrile] | < 1000 nM
10 | Fc1c(CNc2ncc(Cc3c[nH]c4ncccc34)cn2)cccc1C(F)(F)F [P-0309, (2-Fluoro-3-trifluoromethyl-benzyl)-[5-(1H-pyrrolo[2,3-b]pyridin-3-ylmethyl)-pyrimidin-2-yl]-amine] | < 1000 nM
11 | Cc1ccc(C(=O)Nc2ccc(Cc3c[nH]c4ncccc34)cn2)cn1 [P-0108, 6-Methyl-N-[5-(1H-pyrrolo[2,3-b]pyridin-3-ylmethyl)-pyridin-2-yl]-nicotinamide] | < 1000 nM
12 | FC(F)(F)c1cc(CNc2ccc(Cc3c[nH]c4ncccc34)cn2)ccc1Cl [P-0348, (4-Chloro-3-trifluoromethyl-benzyl)-[5-(1H-pyrrolo[2,3-b]pyridin-3-ylmethyl)-pyridin-2-yl]-amine] | < 1000 nM
13 | FC(F)(F)c1ccc(CNc2ncc(Cc3c[nH]c4ncccc34)cn2)cc1 [P-0308, [5-(1H-Pyrrolo[2,3-b]pyridin-3-ylmethyl)-pyrimidin-2-yl]-(4-trifluoromethyl-benzyl)-amine] | < 1000 nM
14 | CCCS(=O)(=O)Nc1ccc(F)c(CNc2ccc(Cc3c[nH]c4ncccc34)cn2)c1F [P-0258, propane-1-sulfonic acid (2,4-difluoro-3-[5-(1H-pyrrolo[2,3-b]pyridin-3-ylmethyl)-pyridin-2-ylamino]-methyl-phenyl)-amide] | < 1000 nM
15 | Clc1ccccc1CNc1ncc(Cc2c[nH]c3ncccc23)cn1 [P-0301, (2-Chloro-benzyl)-[5-(1H-pyrrolo[2,3-b]pyridin-3-ylmethyl)-pyrimidin-2-yl]-amine] | < 1000 nM
16 | CCCS(=O)(=O)Nc1ccc(F)c(CNc2ccc(Cc3c[nH]c4ncc(Cl)cc34)cn2)c1F [P-0259, Propane-1-sulfonic acid (3-{[5-(5-chloro-1H-pyrrolo[2,3-b]pyridin-3-ylmethyl)-pyridin-2-ylamino]-methyl}-2,4-difluoro-phenyl)-amide] | < 1000 nM
17 | FC(F)Oc1ccccc1CNc1ncc(Cc2c[nH]c3ncc(Cl)cc23)cn1 [P-0390, [5-(5-Chloro-1H-pyrrolo[2,3-b]pyridin-3-ylmethyl)-pyrimidin-2-yl]-(2-difluoromethoxy-benzyl)-amine] | < 1000 nM
18 | COc1ccc(CNc2ccc(Cc3c[nH]c4ncccc34)c(F)n2)cn1 [P-0378, [6-Fluoro-5-(1H-pyrrolo[2,3-b]pyridin-3-ylmethyl)-pyridin-2-yl]-(6-methoxy-pyridin-3-ylmethyl)-amine] | < 1000 nM

The remaining lines, values ahead:

Row | IC50 | SMILES
19 | < 1000 nM | O=C(Nc1ccc(Cc2c[nH]c3ncccc23)cn1)c1cccc(OC(F)(F)F)c1 [P-0113, N-[5-(1H-Pyrrolo[2,3-b]pyridin-3-ylmethyl)-pyridin-2-yl]-3-trifluoromethoxy-benzamide]
20 | < 1000 nM | Fc1cccc(Cl)c1CNc1nc(Cl)c(Cc2c[nH]c3ncc(Cl)cc23)s1 [P-0243, [4-Chloro-5-(5-chloro-1H-pyrrolo[2,3-b]pyridin-3-ylmethyl)-thiazol-2-yl]-(2-chloro-6-fluoro-benzyl)-amine]
21 | < 1000 nM | Cc1nn(C(=O)NCCc2ccccc2F)c(C)c1Cc1c[nH]c2ncccc12 [P-0148, 3,5-Dimethyl-4-(1H-pyrrolo[2,3-b]pyridin-3-ylmethyl)-pyrazole-1-carboxylic acid [2-(2-fluoro-phenyl)-ethyl]-amide]
22 | < 1000 nM | Clc1ccccc1CNc1ccc(Cc2c[nH]c3ncccc23)cn1 [P-0216, (2-Chloro-benzyl)-[5-(1H-pyrrolo[2,3-b]pyridin-3-ylmethyl)-pyridin-2-yl]-amine]
23 | < 1000 nM | Fc1cc(CNc2ncc(Cc3c[nH]c4ncccc34)cn2)cc(C(F)(F)F)c1 [P-0294, (3-Fluoro-5-trifluoromethyl-benzyl)-[5-(1H-pyrrolo[2,3-b]pyridin-3-ylmethyl)-pyrimidin-2-yl]-amine]
24 | < 1000 nM | COc1cccc(CNc2ccc(Cc3c[nH]c4ncccc34)cn2)n1 [P-0224, (6-Methoxy-pyridin-2-ylmethyl)-[5-(1H-pyrrolo[2,3-b]pyridin-3-ylmethyl)-pyridin-2-yl]-amine]
25 | < 1000 nM | c1csc(CNc2ccc(Cc3c[nH]c4ncccc34)cn2)c1 [P-0008, [5-(1H-pyrrolo[2,3-b]pyridin-3-ylmethyl)-pyridin-2-yl]-thiophen-2-ylmethyl-amine]
26 | < 1000 nM | Clc1cnc2[nH]cc(Cc3sc(NCc4ccccc4)nc3Cl)c2c1 [P-0192, Benzyl-[4-chloro-5-(5-chloro-1H-pyrrolo[2,3-b]pyridin-3-ylmethyl)-thiazol-2-yl]-amine]
27 | < 1000 nM | Fc1ccc(CNc2ncc(Cc3c[nH]c4ncccc34)cn2)c(C(F)(F)F)c1 [P-0320, (4-Fluoro-2-trifluoromethyl-benzyl)-[5-(1H-pyrrolo[2,3-b]pyridin-3-ylmethyl)-pyrimidin-2-yl]-amine]
28 | < 1000 nM | Fc1ccc(Cl)c(CNc2ncc(Cc3c[nH]c4ncc(Cl)cc34)cn2)c1 [P-0408, (2-Chloro-5-fluoro-benzyl)-[5-(5-chloro-1H-pyrrolo[2,3-b]pyridin-3-ylmethyl)-pyrimidin-2-yl]-amine]
29 | < 1000 nM | O=C(c1ccc(Nc2cccc(O)c2)nc1)c1c[nH]c2ncccc12 [P-0027, [6-(3-Hydroxy-phenylamino)-pyridin-3-yl]-(1H-pyrrolo[2,3-b]pyridin-3-yl)-methanone]
30 | < 1000 nM | Fc1ccc(CNc2ncc(Cc3c[nH]c4ncc(Cl)cc34)s2)cc1 [P-0290, [5-(5-Chloro-1H-pyrrolo[2,3-b]pyridin-3-ylmethyl)-thiazol-2-yl]-(4-fluoro-benzyl)-amine]
31 | < 1000 nM | FC(F)(F)Oc1ccccc1CNc1ccc(Cc2c[nH]c3ncccc23)cn1 [P-0322, [5-(1H-Pyrrolo[2,3-b]pyridin-3-ylmethyl)-pyridin-2-yl]-(2-trifluoromethoxy-benzyl)-amine]
32 | < 1000 nM | N#Cc1cnc2[nH]cc(Cc3ccc(NCc4ccc(C(F)(F)F)nc4)nc3)c2c1 [P-0273, 3-{6-[(6-Trifluoromethyl-pyridin-3-ylmethyl)-amino]-pyridin-3-ylmethyl}-1H-pyrrolo[2,3-b]pyridine-5-carbonitrile]
33 | < 1000 nM | Clc1cnc2[nH]cc(Cc3sc(NCc4c(Cl)cncc4Cl)nc3Cl)c2c1 [P-0253, [4-Chloro-5-(5-chloro-1H-pyrrolo[2,3-b]pyridin-3-ylmethyl)-thiazol-2-yl]-(3,5-dichloro-pyridin-4-ylmethyl)-amine]
34 | < 1000 nM | COc1ncccc1CNc1ccc(Cc2c[nH]c3ncccc23)cn1 [P-0215, (2-Methoxy-pyridin-3-ylmethyl)-[5-(1H-pyrrolo[2,3-b]pyridin-3-ylmethyl)-pyridin-2-yl]-amine]
35 | < 1000 nM | O=C(c1ccc(NCc2cccs2)nc1)c1c[nH]c2ncccc12 [P-0018, (1H-Pyrrolo[2,3-b]pyridin-3-yl)-{6-[(thiophen-2-ylmethyl)-amino]-pyridin-3-yl}-methanone]
36 | < 1000 nM | COc1ccc(CNc2ccc(Cc3c[nH]c4ncc(Cl)cc34)cn2)cn1 [P-0283, [5-(5-Chloro-1H-pyrrolo[2,3-b]pyridin-3-ylmethyl)-pyridin-2-yl]-(6-methoxy-pyridin-3-ylmethyl)-amine]
37 | < 1000 nM | Clc1cnc2[nH]cc(Cc3sc(NCc4cccc(N5CCOCC5)n4)nc3Cl)c2c1 [P-0252, [4-Chloro-5-(5-chloro-1H-pyrrolo[2,3-b]pyridin-3-ylmethyl)-thiazol-2-yl]-(6-morpholin-4-yl-pyridin-2-ylmethyl)-amine]
38 | < 1000 nM | CCn1cc(CNc2nc(Cl)c(Cc3c[nH]c4ncc(Cl)cc34)s2)cn1 [P-0239, [4-Chloro-5-(5-chloro-1H-pyrrolo[2,3-b]pyridin-3-ylmethyl)-thiazol-2-yl]-(1-ethyl-1H-pyrazol-4-ylmethyl)-amine]
39 | < 1000 nM | CNc1ncccc1CNc1ccc(Cc2c[nH]c3ncccc23)cn1 [P-0385, Methyl-(3-{[5-(1H-pyrrolo[2,3-b]pyridin-3-ylmethyl)-pyridin-2-ylamino]-methyl}-pyridin-2-yl)-amine]
40 | < 1000 nM | Clc1ccc(CNc2ccc(Cc3c[nH]c4ncc(Br)cc34)cn2)cc1 [P-0038, [5-(5-Bromo-1H-pyrrolo[2,3-b]pyridin-3-ylmethyl)-pyridin-2-yl]-(4-chloro-benzyl)-amine]
